Data: patent publication US20230295068A1, “NOVEL CYCLOALKENONE COMPOUND OR SALT THEREOF” (TAIHO PHARMACEUTICAL CO., LTD., priority 2020, published 2023)

Test system: ND3 neuronal cell line
Assay: Measurement of nerve growth stimulation effect (neurite bearing assay, neurite length assay, number of cells)
Assay type: cell-based
Settings: 6 hours, relative cell number, DMSO well = 1
Procedure: To evaluate the nerve growth stimulation effect, neurite bearing assay (proportion of neurite-bearing cells) and neurite length assay (neurite length) were analyzed with reference to the method of Topalli et al. (Brain Research 1030 (2004), pp. 116-124).
An ND3 neuronal cell line (European Collection of Authenticated Cell Cultures) was seeded in a DMEM medium containing 10% fetal bovine serum (0.6×10^4 cells/1 mL) in a 24-well plate. 24 hours later, the medium of seeded cells was removed, and a solution in which the compound of the present disclosure that was sequentially diluted in dimethyl sulfoxide (DMSO) was adjusted in DIEM containing 0.1% bovine serum albumin so that the DMSO final concentration was 0.1%, was added to cells (evaluation performed in duplicate). After six hours from the addition, the proportion of neurite-bearing cells (the number of cells having a neurite longer than the diameter of the cell body/number of total cells), and the neurite length per cell were analyzed. The number of total cells, proportion of neurite-bearing cells, and neurite length per cell were analyzed using a MetaMorph Neurite Outgrowth Application Module (Molecular Devices Japan K.K.). The number of cells was defined as the relative cell number, taking the number of cells per well containing DMSO as 1. The relative activity of each compound when the maximum activity of 3-(15-methoxypentadecyl)-2,4,4-trimethylcyclohexa-2-en-1-one (compound 24) in each test was defined as 1 is shown (Table 9). For the compounds for which multiple tests were conducted, the average value was shown. Data with a number of cells of 0.5 or more was also used. Accordingly, if the number of cells was less than 0.5, the neurite length per cell and the proportion of neurite-bearing cells were defined as “-”.

| SMILES | viability at 1 µM [%] | viability at 3 µM [%] | viability at 5 µM [%] | viability at 10 µM [%] | viability at 30 µM [%] | viability at 100 µM [%] |
| --- | --- | --- | --- | --- | --- | --- |
| CC1=C(CCCCCCCCCCCCO)C(C)(C)CCC1=O [Compound 1, 3-(12-hydroxydodecyl)-2,4,4-trimethylcyclohex-2-en-1-one, reference compound] | 103 | 105 | 99 | 103 | 99 | 9 |
| CC1=C(CCCCCCCCCCCCCO)C(C)(C)CCC1=O [Compound 2, 3-(13-hydroxytridecyl)-2,4,4-trimethylcyclohex-2-en-1-one, reference compound] | 113 | 102 | 96 | 96 | 19 | 9 |
| CC1=C(CCCCCCCCCCCCCCO)C(C)(C)CCC1=O [Compound 3, 3-(14-hydroxytetradecyl)-2,4,4-trimethylcyclohex-2-en-1-one, reference compound] | 98 | 105 | 110 | 108 | 11 | 13 |
| CC1=C(CCCCCCCCCCCCCCCCO)C(C)(C)CCC1=O [Compound 5, 3-(16-hydroxyhexadecyl)-2,4,4-trimethylcyclohex-2-en-1-one, reference compound] | 111 | 109 | 105 | 83 | 49 | 40 |
| CC1=C(CCCCCCCCCCCCCCCOC2CCCCO2)C(C)(C)CCC1=O (stereo not drawn) [Compound 6, 2,4,4-trimethyl-3-(15-((tetrahydro-2H-pyran-2-yl)oxy)pentadecyl)cyclohex-2-en-1-one, reference compound] | 97 | 85 | 67 | 64 | 72 | 92 |
| CC1=C(CCCCCCCCCCCCCCCO)CCCC1=O [Compound 7, 3-(15-hydroxypentadecyl)-2-methylcyclohex-2-en-1-one, reference compound] | 100 | 100 | 87 | 86 | 17 | 19 |
| CC1(C)CCC(=O)C=C1CCCCCCCCCCCCCCCO [Compound 8, 3-(15-hydroxypentadecyl)-4,4-dimethylcyclohex-2-en-1-one, reference compound] | 101 | 102 | 98 | 93 | 6 | 9 |
| COCCCCCCCCCCCCC1=C(C)C(=O)CCC1(C)C [Compound 11, 3-(12-methoxydodecyl)-2,4,4-trimethylcyclohex-2-en-1-one] | 96 | 96 | 83 | 82 | 62 | 70 |
| CCOCCCCCCCCCCCCC1=C(C)C(=O)CCC1(C)C [Compound 12, 3-(12-ethoxydodecyl)-2,4,4-trimethylcyclohex-2-en-1-one] | 96 | 90 | 77 | 69 | 11 | 3 |
| CC1=C(CCCCCCCCCCCCOC(C)C)C(C)(C)CCC1=O [Compound 13, 3-(12-isopropoxydodecyl)-2,4,4-trimethylcyclohex-2-en-1-one] | 91 | 87 | 75 | 73 | 34 | 18 |
| CCCOCCCCCCCCCCCCC1=C(C)C(=O)CCC1(C)C [Compound 14, 2,4,4-trimethyl-3-(12-propoxydodecyl)cyclohex-2-en-1-one] | 98 | 98 | 91 | 95 | 95 | 75 |
| CCCCOCCCCCCCCCCCCC1=C(C)C(=O)CCC1(C)C [Compound 15, 3-(12-butoxydodecyl)-2,4,4-trimethylcyclohex-2-en-1-one] | 93 | 100 | 95 | 88 | 101 | 92 |
| COCCCCCCCCCCCCCC1=C(C)C(=O)CCC1(C)C [Compound 16, 3-(13-methoxytridecyl)-2,4,4-trimethylcyclohex-2-en-1-one] | 89 | 88 | 71 | 68 | 69 | 77 |
| CCOCCCCCCCCCCCCCC1=C(C)C(=O)CCC1(C)C [Compound 17, 3-(13-ethoxytridecyl)-2,4,4-trimethylcyclohex-2-en-1-one] | 99 | 105 | 97 | 104 | 72 | 81 |
| CC1=C(CCCCCCCCCCCCCOC(C)C)C(C)(C)CCC1=O [Compound 18, 3-(13-isopropoxytridecyl)-2,4,4-trimethylcyclohex-2-en-1-one] | 116 | 106 | 89 | 97 | 95 | 89 |
| CCCOCCCCCCCCCCCCCC1=C(C)C(=O)CCC1(C)C [Compound 19, 2,4,4-trimethyl-3-(13-propoxytridecyl)cyclohex-2-en-1-one] | 98 | 105 | 85 | 88 | 111 | 105 |
| CCCCOCCCCCCCCCCCCCC1=C(C)C(=O)CCC1(C)C [Compound 20, 3-(13-butoxytridecyl)-2,4,4-trimethylcyclohex-2-en-1-one] | 110 | 110 | 96 | 90 | 113 | 117 |
| COCCCCCCCCCCCCCCC1=C(C)C(=O)CCC1(C)C [Compound 21, 3-(14-methoxytetradecyl)-2,4,4-trimethylcyclohex-2-en-1-one] | 104 | 111 | 102 | 103 | 82 | 96 |
| CCOCCCCCCCCCCCCCCC1=C(C)C(=O)CCC1(C)C [Compound 22, 3-(14-ethoxytetradecyl)-2,4,4-trimethylcyclohex-2-en-1-one] | 114 | 103 | 94 | 103 | 99 | 97 |
| CC1=C(CCCCCCCCCCCCCCOC(C)C)C(C)(C)CCC1=O [Compound 23, 3-(14-isopropoxytetradecyl)-2,4,4-trimethylcyclohex-2-en-1-one] | 103 | 112 | 98 | 95 | 98 | 102 |
